Reference: US20150274661A1, “INDOL-AMIDE COMPOUNDS AS BETA-AMYLOID INHBITORS” (Hoffmann-La Roche Inc., priority 2012, published 2015)

system: Aβ42 secretion; assay: Cellular γ-secretase assay (inhibition of Aβ42 secretion); assay type: cell-based; conditions: Homo sapiens, 22 h, human neuroglioma H4 cells overexpressing human APP, 22 hours incubation
Outline: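 H4 neuroglioma cells overexpressing human APP were exposed to compounds (ten-point dilution series, 0.4% DMSO) for 22 h at 37°C. Secreted Aβ42 in supernatant measured by electrochemiluminescence sandwich immunoassay (ruthenylated BAP15 detection, biotinylated 6E10 capture on streptavidin beads). IC50 by nonlinear regression.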

EC50 | Structure (SMILES)
528 nM | O=C(Nc1cc(F)cc(F)c1)c1cc2cc([C@@H]3CCN(CC(F)(F)F)C3)ccc2[nH]1 [Example 104, 5-[(S)-1-(2,2,2-Trifluoro-ethyl)-pyrrolidin-3-yl]-1H-indole-2-carboxylic acid (3,5-difluoro-phenyl)-amide]
1210 nM | CC(C)C(=O)N1CC[C@H](c2ccc3[nH]c(C(=O)Nc4cc(F)cc(F)c4)cc3c2)C1 [Example 105, 5-((R)-1-Isobutyryl-pyrrolidin-3-yl)-1H-indole-2-carboxylic acid (3,5-difluoro-phenyl)-amide]
889 nM | CC(C)C(=O)N1CC[C@@H](c2ccc3[nH]c(C(=O)Nc4cc(F)cc(F)c4)cc3c2)C1 [Example 106, 5-((S)-1-Isobutyryl-pyrrolidin-3-yl)-1H-indole-2-carboxylic acid (3,5-difluoro-phenyl)-amide]
646 nM | N#CCN1CC[C@H](c2ccc3[nH]c(C(=O)Nc4cccc(F)c4)cc3c2)C1 [Example 108, (R)-5-(1-(Cyanomethyl)pyrrolidin-3-yl)-N-(3-fluorophenyl)-1H-indole-2-carboxamide]
472 nM | N#CCN1CC[C@@H](c2ccc3[nH]c(C(=O)Nc4cccc(F)c4)cc3c2)C1 [Example 109, (S)-5-(1-(Cyanomethyl)pyrrolidin-3-yl)-N-(3-fluorophenyl)-1H-indole-2-carboxamide]
116 nM | CC(C)N1CCC[C@H](c2ccc3[nH]c(C(=O)Nc4cccc(F)c4)cc3c2)C1 [Example 110, 5-((R)-1-Isopropyl-piperidin-3-yl)-1H-indole-2-carboxylic acid (3-fluoro-phenyl)-amide]
876 nM | CC(C)N1CCC[C@@H](c2ccc3[nH]c(C(=O)Nc4cccc(F)c4)cc3c2)C1 [Example 111, 5-((S)-1-Isopropyl-piperidin-3-yl)-1H-indole-2-carboxylic acid (3-fluoro-phenyl)-amide]
226 nM | CC(=O)N1CCC[C@H](c2ccc3[nH]c(C(=O)Nc4cc(F)cc(F)c4)cc3c2)C1 [Example 112, 5-((R)-1-Acetyl-piperidin-3-yl)-1H-indole-2-carboxylic acid (3,5-difluoro-phenyl)-amide]
1790 nM | CC(=O)N1CCC[C@@H](c2ccc3[nH]c(C(=O)Nc4cc(F)cc(F)c4)cc3c2)C1 [Example 113, 5-((S)-1-Acetyl-piperidin-3-yl)-1H-indole-2-carboxylic acid (3,5-difluoro-phenyl)-amide]
273 nM | O=C(Nc1cccc(F)c1)c1cc2cc([C@H]3CCCN(CCO)C3)ccc2[nH]1 [Example 114, (R)—N-(3-Fluorophenyl)-5-(1-(2-hydroxyethyl)piperidin-3-yl)-1H-indole-2-carboxamide]
1500 nM | O=C(Nc1cccc(F)c1)c1cc2cc([C@@H]3CCCN(CCO)C3)ccc2[nH]1 [Example 115, (S)—N-(3-Fluorophenyl)-5-(1-(2-hydroxyethyl)piperidin-3-yl)-1H-indole-2-carboxamide]
545 nM | O=C(Nc1cccc(F)c1)c1cc2cc([C@H]3CCCN(C4CC4)C3)ccc2[nH]1 [Example 116, (R)-5-(1-Cyclopropylpiperidin-3-yl)-N-(3-fluorophenyl)-1H-indole-2-carboxamide]
4360 nM | O=C(Nc1cccc(F)c1)c1cc2cc([C@@H]3CCCN(C4CC4)C3)ccc2[nH]1 [Example 117, (S)-5-(1-Cyclopropylpiperidin-3-yl)-N-(3-fluorophenyl)-1H-indole-2-carboxamide]
753 nM | C[C@H](CN1CCCC1)c1ccc2[nH]c(C(=O)Nc3cccc(F)c3)cc2c1 [Example 118]
1730 nM | C[C@@H](CN1CCCC1)c1ccc2[nH]c(C(=O)Nc3cccc(F)c3)cc2c1 [Example 119]
7420 nM | C[C@@H](c1ccc2[nH]c(C(=O)Nc3cc(F)cc(F)c3)cc2c1)[C@@H]1CCN(CC(F)(F)F)C1 [Example 120, N-(3,5-Difluorophenyl)-5-((R)-1-((S)-1-(2,2,2-trifluoroethyl)pyrrolidin-3-yl)ethyl)-1H-indole-2-carboxamide]
7480 nM | C[C@@H](c1ccc2[nH]c(C(=O)Nc3cc(F)cc(F)c3)cc2c1)[C@H]1CCN(CC(F)(F)F)C1 [Example 121, N-(3,5-Difluorophenyl)-5-((R)-1-((R)-1-(2,2,2-trifluoroethyl)pyrrolidin-3-yl)ethyl)-1H-indole-2-carboxamide]
2070 nM | CC(=O)N1CC[C@@H]([C@H](C)c2ccc3[nH]c(C(=O)Nc4cc(F)cc(F)c4)cc3c2)C1 [Example 122, 5-((S)-1-((S)-1-Acetylpyrrolidin-3-yl)ethyl)-N-(3,5-difluorophenyl)-1H-indole-2-carboxamide]

same assay, conditions: human neuroglioma H4 cells overexpressing human APP, 22 hours incubation

EC50 | Structure (SMILES)
300 nM | CN1CC[C@@H](c2ccc3[nH]c(C(=O)Nc4cc(F)cc(F)c4)cc3c2)C1 [Example 102, 5-((S)-1-Methyl-pyrrolidin-3-yl)-1H-indole-2-carboxylic acid (3,5-difluoro-phenyl)-amide]
374 nM | CN1CC[C@H](c2ccc3[nH]c(C(=O)Nc4cc(F)cc(F)c4)cc3c2)C1 [Example 103, 5-((R)-1-Methyl-pyrrolidin-3-yl)-1H-indole-2-carboxylic acid (3,5-difluoro-phenyl)-amide]
628 nM | CC(C)S(=O)(=O)N1CCC(c2ccc3[nH]c(C(=O)Nc4cc(F)cc(F)c4)cc3c2)C1 (stereo not drawn) [Example 107]
